Results reported in US20250155354A1, “METHOD AND DEVICE FOR HIGH THROUGHPUT CELL DEFORMABILITY MEASUREMENTS” (THE REGENTS OF THE UNIVERSITY OF CALIFORNIA, priority 2010, published 2025).

Tested on: cervical carcinoma cells (HeLa)
Test: Cell deformability measurement of drug-treated HeLa cells in microfluidic extensional flow (cytoskeletal disruption)
Format: cell-based
Method: Still referring to FIG. 4, post-processing (operation 450) is conducted on the data 80 to determine cell size, cell deformation, and cell circularity. The cells 50 passing through the system 10 may either be of a known phenotype or an unknown phenotype as illustrated by operation 400. As part of the post processing operation 450, the size of the cell 50 prior to entering the extensional region 40 is determined. The cell diameter (d) is determined as the average of the minimum cell diameters at […] to horizontal prior to entering the extensional region 40 (approximately four (4) frames prior to entering extension region 40). By taking the size measurements from the vertical axis, noise due to blur attributed to high velocities in the horizontal direction is reduced. As the cell 50 enters the extension region 40 and changes trajectory the deformability and circularity parameters are measured. In the frame where the largest deformation is calculated, the corresponding circularity is recorded as well. The deformability parameter is determined by the ratio a/b of the maximum diameter (a) in the vertical direction at 90°±30° to the minimum diameter (b) in the horizontal direction at 0°±30°. The circularity parameter is calculated by (4πA/L^2) wherein A is the area of the observed cell and L is the perimeter of the cell. […]

Row | SMILES | cell deformability (a/b) versus untreated HeLa control (HeLa cells incubated in 0.1 μM Latrunculin A for 4 hours prior to deformability assay) | cell deformability (a/b) versus untreated HeLa control (HeLa cells incubated in 2 μM nocodazole for 1 hour prior to deformability assay)
1 | C/C1=C/C(=O)O[C@@H]2C[C@@H](CC[C@H](C)/C=C\C=C\CC1)O[C@@](O)([C@@H]1CSC(=O)N1)C2 [Latrunculin, Latrunculin A] | significantly more deformable | 
2 | COC(=O)Nc1nc2ccc(C(=O)c3cccs3)cc2[nH]1 [Nocodazole] |  | more rigid than untreated cells
